This is an account of results in patent US20240173332A1, “BENZO[…] TREATING OR PREVENTING RESPIRATORY SYNCYTIAL VIRUS INFECTION” (Pfizer Inc., priority 2021, published 2024).

In general, EC50 refers to the concentration at which the effect is half-maximal. As usually defined, the CC50 is the concentration giving 50% cytotoxicity.

One data set relates to RSV A2. The data set is described as follows: RSV plaque reduction assay in Hep-G2 cells. Format: cell-based, respiratory syncytial virus (RSV). To be noted: human respiratory syncytial virus, HepG2, 48 h, mean of at least two experiments. How it is done: Compounds were subjected to RSV plaque reduction assays according to the following protocol. Plaque EC50 and cell toxicity CC50 values are a mean of at least two experiments and figures are rounded to whole units.
Hep-G2 cells (ECACC, 85011430) were passaged in flasks and seeded in 24-well plates in DMEM containing antibiotics and supplemented with 10% FBS. During inoculation and subsequent incubation, cells were cultured in DMEM containing 2% FBS. 100 plaque forming unit/well of RSV (RSV A2 ECACC, 0709161v) was mixed with eight serial dilutions of compound. Subsequently, 100 μL of the virus/compound mixtures was added to confluent Hep-G2 cell monolayers. The cells and virus/compound mixtures were incubated at 37° C. in a humidified 5% CO2 incubator for 2 h prior to removal of the inoculum and addition of 1 mL of overlay (DMEM containing 2% FBS and 0.8% CMC) containing compound dilutions. The cells and were incubated at 37° C. in a humidified 5% CO2 incubator for 2 days.
Cells were washed with PBS before adding 75/25% v/v EtOH/MeOH, for 3 min. Fixative was removed and plates were washed with PBS. A pre-titrated amount of the primary antibody was added in 200 μL PBS/2% milk powder, and plates incubated for 90 min at 37° C. The plates were washed 3 times with PBS/0.05% Tween20 before addition of rabbit anti-goat horse radish peroxidase in 200 μL PBS/2% milk powder, and incubated for 1 h at 37° C. Following three wash steps with PBS/0.05% Tween20, 200 μL ready-to-use TrueBlue was added and plates were incubated at rt for 10-15 min before washing with water. After removal of water, plates were air-dried in the dark. Plates were scanned and analysed using the Immunospot S6 Macro analyser, which is equipped with BioSpot analysis software for counting immunostained plaques (virospots). Plaque counts were used to calculate % infection relative to the mean of the plaque count in the virus control wells for RSV. The EC50 value was calculated as 50% reduction in signal, respectively, by interpolation of inhibition curves fitted with a 4-parameter nonlinear regression with a variable slope in Dotmatics. Plaque EC50 and cell toxicity CC50 values are a mean of at least two experiments and figures are rounded to whole units.

A further data set can be described thus: Cell cytotoxicity CC50. Format: cell-based. To be noted: human, Hep-G2 cells; mean of at least two experiments unless (n = 1).
The mark [1] stands for this setting: Hep-G2 cells, RSV A2, 2 days, read-out: RSV A2 Plaque EC50.

Structures can show the parent of a compound that is named as a salt. Where two headings read alike, the source gives them in different places.

Turning to `O=C(N[C@H]1N=C(c2ccccc2)c2ccccc2NC1=O)c1c(-c2cc(CO)ccc2F)nn2cccnc12` [Example 9, 2-[2-Fluoro-5-(hydroxymethyl)phenyl]-N-[(3S)-2-oxo-5-phenyl-1,3-dihydro-1,4-benzodiazepin-3-yl]pyrazolo[1,5-a]pyrimidine-3-carboxamide], the concentration giving a half-maximal response (EC50) in the data set on RSV A2 (setting [1]) amounted to 60 nM. In “Cell cytotoxicity CC50”, the CC50 is > 25000 nM.

As for `O=C(N[C@H]1N=C(c2ccccc2)c2ccccc2NC1=O)c1c(-c2ccc(CCO)cc2F)nn2cccnc12` [Example 21, 2-[2-Fluoro-4-(2-hydroxyethyl)phenyl]-N-[(3S)-2-oxo-5-phenyl-1,3-dihydro-1,4-benzodiazepin-3-yl]pyrazolo[1,5-a]pyrimidine-3-carboxamide], the EC50 in the data set on RSV A2 (setting [1]) was 42 nM. Besides, in “Cell cytotoxicity CC50”, the CC50 was > 25000 nM.

Regarding `CN(C)S(=O)(=O)c1ccc(-c2nn3cccnc3c2C(=O)N[C@H]2N=C(c3ccccc3)c3cccc(F)c3NC2=O)c(F)c1` [Example 25, 2-[4-(Dimethylsulfamoyl)-2-fluorophenyl]-N-[(3S)-9-fluoro-2-oxo-5-phenyl-1,3-dihydro-1,4-benzodiazepin-3-yl]pyrazolo[1,5-a]pyrimidine-3-carboxamide], the EC50 in the data set on RSV A2 (setting [1]) stood at 1.2 nM. For the same molecule, the CC50 in “Cell cytotoxicity CC50” is > 25000 nM.

For the molecule `O=C(N[C@H]1N=C(c2ccccc2)c2cccc(F)c2NC1=O)c1c(-c2ccc(O)cc2F)nn2cccnc12` [Example 12, 2-(2-Fluoro-4-hydroxyphenyl)-N-[(3S)-9-fluoro-2-oxo-5-phenyl-1,3-dihydro-1,4-benzodiazepin-3-yl]pyrazolo[1,5-a]pyrimidine-3-carboxamide], in the data set on RSV A2 (setting [1]), the EC50 is 16 nM. For the same molecule, in the data set “Cell cytotoxicity CC50”, the 50% cytotoxic concentration (CC50) is > 25000 nM.

In the case of `O=C(N[C@H]1N=C(c2ccccc2)c2ccccc2NC1=O)c1c(-c2ccc(O)cc2F)nn2cccnc12` [Example 11, 2-(2-Fluoro-4-hydroxyphenyl)-N-[(3S)-2-oxo-5-phenyl-1,3-dihydro-1,4-benzodiazepin-3-yl]pyrazolo[1,5-a]pyrimidine-3-carboxamide], the EC50 with RSV A2 (setting [1]) stood at 47 nM. Also, in the data set “Cell cytotoxicity CC50”, the CC50 is > 25000 nM.

Take `CC(C)(O)c1ccc(-c2nn3cccnc3c2C(=O)N[C@H]2N=C(c3ccccc3)c3ccccc3NC2=O)c(F)c1` [Example 20, 2-[2-Fluoro-4-(2-hydroxypropan-2-yl)phenyl]-N-[(3S)-2-oxo-5-phenyl-1,3-dihydro-1,4-benzodiazepin-3-yl]pyrazolo[1,5-a]pyrimidine-3-carboxamide]: in the data set on RSV A2 (setting [1]), the half-maximal effective concentration (EC50) amounted to 8.7 nM. The CC50 in “Cell cytotoxicity CC50” was > 25000 nM.

As to `CC(O)c1ccc(-c2nn3cccnc3c2C(=O)N[C@H]2N=C(c3ccccc3)c3ccccc3NC2=O)c(F)c1` (stereo partly drawn) [Example 16, 2-[2-Fluoro-4-(1-hydroxyethyl)phenyl]-N-[(3S)-2-oxo-5-phenyl-1,3-dihydro-1,4-benzodiazepin-3-yl]pyrazolo[1,5-a]pyrimidine-3-carboxamide], in the data set on RSV A2 (setting [1]), the EC50 is 7.6 nM. Also, in the data set “Cell cytotoxicity CC50”, the CC50 was > 25000 nM.

As for `CC(O)c1ccc(-c2nn3cccnc3c2C(=O)N[C@H]2N=C(c3ccccc3)c3ccccc3NC2=O)c(F)c1` (single isomer, unassigned) [Example 16-1, 2-[2-Fluoro-4-[(1S*)-1-hydroxyethyl]phenyl]-N-[(3S)-2-oxo-5-phenyl-1,3-dihydro-1,4-benzodiazepin-3-yl]pyrazolo[1,5-a]pyrimidine-3-carboxamide], the EC50 in the data set on RSV A2 (read-out: RSV A2 Plaque EC50, Hep-G2 cells, RSV A2, 2 days) worked out at 8.2 nM. For the same molecule, the CC50 in “Cell cytotoxicity CC50” is > 2500 nM.

Turning to `CCS(=O)(=O)c1ccc(-c2nn3cccnc3c2C(=O)N[C@H]2N=C(c3ccccc3)c3cccc(F)c3NC2=O)c(F)c1` [Example 23, 2-(4-Ethylsulfonyl-2-fluorophenyl)-N-[(3S)-9-fluoro-2-oxo-5-phenyl-1,3-dihydro-1,4-benzodiazepin-3-yl]pyrazolo[1,5-a]pyrimidine-3-carboxamide], the EC50 in the data set on RSV A2 (setting [1]) was found to be 3 nM. For the same molecule, the CC50 in “Cell cytotoxicity CC50” was > 25000 nM.

For the molecule `CC(O)c1ccc(-c2nn3cccnc3c2C(=O)N[C@H]2N=C(c3ccccc3)c3cccc(F)c3NC2=O)c(F)c1` (stereo partly drawn) [Example 17, 2-[2-Fluoro-4-(1-hydroxyethyl)phenyl]-N-[(3S)-9-fluoro-2-oxo-5-phenyl-1,3-dihydro-1,4-benzodiazepin-3-yl]pyrazolo[1,5-a]pyrimidine-3-carboxamide], the EC50 in the data set on RSV A2 (setting [1]) amounted to 6.9 nM. Also, the CC50 in the data set “Cell cytotoxicity CC50” was > 25000 nM.

On to `NC(=O)c1ccc(-c2nn3cccnc3c2C(=O)N[C@H]2N=C(c3ccccc3)c3cccc(F)c3NC2=O)c(F)c1` [Example 27, 2-(4-Carbamoyl-2-fluorophenyl)-N-[(3S)-9-fluoro-2-oxo-5-phenyl-1,3-dihydro-1,4-benzodiazepin-3-yl]pyrazolo[1,5-a]pyrimidine-3-carboxamide], for which the EC50 with RSV A2 (setting [1]) was 49 nM. Moreover, the CC50 in the data set “Cell cytotoxicity CC50” is > 25000 nM.

Turning to `CC(C)(O)Cc1ccc(-c2nn3cccnc3c2C(=O)N[C@H]2N=C(c3ccccc3)c3cccc(F)c3NC2=O)c(F)c1` [Example 14, 2-[2-Fluoro-4-(2-hydroxy-2-methylpropyl)phenyl]-N-[(3S)-9-fluoro-2-oxo-5-phenyl-1,3-dihydro-1,4-benzodiazepin-3-yl]pyrazolo[1,5-a]pyrimidine-3-carboxamide], the EC50 with RSV A2 (setting [1]) was 20 nM. Besides, the CC50 in the data set “Cell cytotoxicity CC50” was > 25000 nM.

Consider `O=C(N[C@H]1N=C(c2ccccc2)c2cccc(F)c2NC1=O)c1c(-c2cc(CO)ccc2F)nn2cccnc12` [Example 10, 2-[2-Fluoro-5-(hydroxymethyl)phenyl]-N-[(3S)-9-fluoro-2-oxo-5-phenyl-1,3-dihydro-1,4-benzodiazepin-3-yl]pyrazolo[1,5-a]pyrimidine-3-carboxamide], for which the EC50 in the data set on RSV A2 (setting [1]) was found to be 25 nM. In the data set “Cell cytotoxicity CC50”, the CC50 was > 20200 nM.

On to `CC(C)(O)Cc1ccc(-c2nn3cccnc3c2C(=O)N[C@H]2N=C(c3ccccc3)c3ccccc3NC2=O)c(F)c1` [Example 15, 2-[2-Fluoro-4-(2-hydroxy-2-methylpropyl)phenyl]-N-[(3S)-2-oxo-5-phenyl-1,3-dihydro-1,4-benzodiazepin-3-yl]pyrazolo[1,5-a]pyrimidine-3-carboxamide], for which the EC50 with RSV A2 (setting [1]) was 32 nM. For the same molecule, the CC50 in the data set “Cell cytotoxicity CC50” was > 25000 nM.

As to `CS(=O)(=O)c1ccc(-c2nn3cccnc3c2C(=O)N[C@H]2N=C(c3ccccc3)c3ccccc3NC2=O)c(F)c1` [Example 8, 2-(2-Fluoro-4-methylsulfonylphenyl)-N-[(3S)-2-oxo-5-phenyl-1,3-dihydro-1,4-benzodiazepin-3-yl]pyrazolo[1,5-a]pyrimidine-3-carboxamide], the EC50 with RSV A2 (setting [1]) was found to be 13 nM. The CC50 in “Cell cytotoxicity CC50” is > 25000 nM.

For `CS(=O)(=O)c1ccc(F)c(-c2nn3cccnc3c2C(=O)N[C@H]2N=C(c3ccccc3)c3cccc(F)c3NC2=O)c1` [Example 26, 2-(2-Fluoro-5-methylsulfonylphenyl)-N-[(3S)-9-fluoro-2-oxo-5-phenyl-1,3-dihydro-1,4-benzodiazepin-3-yl]pyrazolo[1,5-a]pyrimidine-3-carboxamide], the EC50 in the data set on RSV A2 (setting [1]) turned out to be 61 nM. In addition, the CC50 in the data set “Cell cytotoxicity CC50” is > 25000 nM.

On to `CC(C)n1cc(-c2nn3cccnc3c2C(=O)N[C@H]2N=C(c3ccccc3)c3ccccc3NC2=O)cn1` [Example 5, N-[(3S)-2-oxo-5-phenyl-1,3-dihydro-1,4-benzodiazepin-3-yl]-2-(1-propan-2-ylpyrazol-4-yl)pyrazolo[1,5-a]pyrimidine-3-carboxamide], for which, in the data set on RSV A2 (setting [1]), the EC50 was found to be 66 nM. Further, in “Cell cytotoxicity CC50”, the CC50 is > 25000 nM.

As to `CC(C)[C@H](N)C(=O)OCc1ccc(-c2nn3cccnc3c2C(=O)N[C@H]2N=C(c3ccccc3)c3ccccc3NC2=O)c(F)c1` [Example 30, [3-Fluoro-4-(3-{[(3S)-2-oxo-5-phenyl-1,3-dihydro-1,4-benzodiazepin-3-yl]carbamoyl}pyrazolo[1,5-a]pyrimidin-2-yl)phenyl]methyl (2S)-2-amino-3-methylbutanoate hydrochloride], in the data set on RSV A2 (setting [1]), the EC50 came to 44 nM. Further, the CC50 in “Cell cytotoxicity CC50” is > 25000 nM.

`NS(=O)(=O)c1ccc(-c2nn3cccnc3c2C(=O)N[C@H]2N=C(c3ccccc3)c3cccc(F)c3NC2=O)c(F)c1` [Example 24, N-[(3S)-9-Fluoro-2-oxo-5-phenyl-1,3-dihydro-1,4-benzodiazepin-3-yl]-2-(2-fluoro-4-sulfamoylphenyl)pyrazolo[1,5-a]pyrimidine-3-carboxamide]: the EC50 in the data set with RSV A2 (setting [1]) was 49 nM. Also, in the data set “Cell cytotoxicity CC50”, the CC50 is > 25000 nM.

Turning to `CC(O)c1ccc(-c2nn3cccnc3c2C(=O)N[C@H]2N=C(c3ccccc3)c3cccc(F)c3NC2=O)c(F)c1` (single isomer, unassigned) [Example 17-1, 2-[2-Fluoro-4-[(1S*)-1-hydroxyethyl]phenyl]-N-[(3S)-9-fluoro-2-oxo-5-phenyl-1,3-dihydro-1,4-benzodiazepin-3-yl]pyrazolo[1,5-a]pyrimidine-3-carboxamide], the EC50 in the data set with RSV A2 (setting [1]) came out at 5.5 nM. Also, the CC50 in “Cell cytotoxicity CC50” was > 2500 nM.
